Results on twelve compounds are retold here after patent EP2963103A1, “pH-sensitive nanocapsules” (Henkel AG & Co. KGaA, priority 2014, dated 2016).

Data set [1] can be described thus: Encapsulation efficiency EEsc / solid content, gravimetric after freeze-drying. It is filed as physicochemical. The following applies: fragrance encapsulated with Monomermischung S1. The text has this: Der Feststoffgehalt (SC) wurde […] Proben bestimmt. Vorher wurden zwei verschiedene theoretische Feststoffgehalte berechnet. SC1 ohne die Masse des Riechstoffs und SC2 […] Bestimmung des […] und […] bei der Messung des Feststoffgehalts SC2 mitbestimmt. Unter […] bei Polymerisation kann durch den Vergleich des praktisch gemessenen Feststoffgehalts SC mit den oben genannten theoretischen Werten die Menge an […]. Der Anteil an […] zur Einsatzmenge bei […].: Encapsulation Efficiency) EEsc in Prozent angegeben. Der theoretisch berechneten Feststoffgehalt SC1 betrugt 14,3%. Die Angabe […] 1 zeigt, dass der Riechstoff eingeschlossen wurde und […]. Die […]. Die in den Beispielen 1 und 2 verwendete Monomermischung S1 wurde für die Verkapselung weiterer Riechstoffe verwendet und die […] oben […]. Die […]

The conditions of data set [2]: Hansen-Parameter, cited from earlier work; for δp: dipolar forces; for δd: dispersion forces; for δh: hydrogen bonds.
The conditions of data set [3]: Hansen-Parameter, δt^2 = δd^2 + δp^2 + δh^2. The text has this:
Damit die hydrophobe Verbindung effektiv verkapselt werden kann, ist es erforderlich, dass die Verbindung ausreichend hydrophob ist, so dass sie nicht mit dem aus den Monomeren gebildeten Polymer derart interagiert, dass sie dieses übermäßig quellen und dadurch für die Verbindung stärker permeabel werden lässt. Es ist daher bevorzugt, dass die mindestens eine hydrophobe Verbindung einen Hansen-Parameter δt von weniger als 20, insbesondere weniger als 19 hat; und/oder einen Hansen-Parameter δh von weniger als 10, insbesondere weniger als 6 hat.
Der Hansen-Parameter ist ein in der Polymerchemie weit verbreiteter Parameter zum Vergleich der Löslichkeit bzw. Mischbarkeit von verschiedenen Substanzen. Dieser Parameter wurde von Charles Hansen entwickelt, um die Löslichkeit eines Materials in einem anderen vorherzusagen. Dabei wird die Kohäsionsenergie einer Flüssigkeit betrachtet, welche in mindestens drei verschiedene Kräfte eingeteilt werden kann: (a) Dispersionskräfte zwischen den Molekülen δd, (b) Dipolare intermolekulare Kräfte zwischen den Molekülen δp und (c) Wasserstoffbrückenbindungen zwischen den Molekülen δh. Diese drei Parameter können zu einem Parameter δt zusammengefasst werden nach der Formel δt^2 = δd^2 + δp^2 + δh^2. Je ähnlicher der Hansen-Parameter von unterschiedlichen Materialien ist, desto besser sind diese ineinander mischbar.
Tabelle 3 gibt die Hansen-Parameter für die getesteten Riechstoffe an. Tabelle 3: Hansen-Parameter

Hexenol: the “Verkapselungseffizienz EEsc” value in data set [1] came out at 0%. Moreover, in data set [2], the δp is 6,7, the δd was 16 and the δh was 13,4.

Take `CC(C)=CCC/C(C)=C/CO` [Geraniol]: the “Verkapselungseffizienz EEsc” value in data set [1] is 0%. Besides, the δt in data set [3] was 20,25.

Turning to `CC1=CCC2CC1C2(C)C` (stereo not drawn) [α-Pinen], in data set [1], the “Verkapselungseffizienz EEsc” value worked out at 91%. In data set [2], the δp was 4,3, the δd was 15,6 and the δh is on record as 0.

As for `OCCc1ccccc1` [Phenylethylalkohol], the δt in data set [3] is listed as 24,09. In data set [2], the δp is recorded as 7,6, the δd was 18,8 and the δh was 13.

Consider `CC(C)=CCCC(C)CC=O` (centres unmarked) [Citronellal], for which the “Verkapselungseffizienz EEsc” value in data set [1] worked out at 72%. Also, the δt in data set [3] is recorded as 18,01. Besides, in data set [2], the δp is given as 5,9, the δd is 16,2 and the δh is listed as 5,2.

As for `CC(C=O)Cc1ccc(C(C)(C)C)cc1` (centres unmarked) [Lilial, 3-(4-tert-Butylphenyl)-2-methylpropanal], the “Verkapselungseffizienz EEsc” value in data set [1] worked out at 77%. Besides, the δt in data set [3] is 18,10. Also, in data set [2], the δp is on record as 2,3, the δd is 17,3 and the δh is 4,8.

For `CC/C=C\CC1=C(C)CCC1=O` [Jasmone], the δt in data set [3] was 18,49. In data set [2], the δp is given as 5,2, the δd is given as 17 and the δh is 5,1.

Take `C=CC(C)CCCC(C)(C)O` (centres unmarked) [Dihydromyrcenol]: in data set [1], the “Verkapselungseffizienz EEsc” value is on record as 4%. Moreover, in data set [3], the δt is on record as 19,72. In addition, in data set [2], the δp is 4,3, the δd is 16 and the δh is 10,7.

Turning to `C/C=C/C(=O)C1=C(C)CCCC1(C)C` [β-Damascone], the “Verkapselungseffizienz EEsc” value in data set [1] turned out to be 72%. In addition, in data set [3], the δt is reported as 18,84. Besides, in data set [2], the δp was 4,9, the δd is listed as 17,4 and the δh is listed as 5,3.

Turning to `C/C=C\C(=O)C1C(C)=CCCC1(C)C` (stereo not drawn) [α-Damascone], the “Verkapselungseffizienz EEsc” value in data set [1] is on record as 52%. In addition, the δt in data set [3] is reported as 18,94. For the same compound, in data set [2], the δp is listed as 5,7, the δd is 17,1 and the δh is given as 5,8.

Take Ionon: the “Verkapselungseffizienz EEsc” value in data set [1] is given as 46%. In addition, the δt in data set [3] is 18,94. In data set [2], the δp is on record as 5,7, the δd is 17,1 and the δh is 5,8.

For the compound `CC(C)=CCCC(C)CCO` (centres unmarked) [Citronellol], in data set [1], the “Verkapselungseffizienz EEsc” value was 25%. Also, the δt in data set [3] is given as 19,97. Moreover, in data set [2], the δp was 4,8, the δd is listed as 16,1 and the δh is given as 10,8.
